Assay results published in patent US9233964B2, “Sulfamide piperazine derivatives as protein tyrosine kinase inhibitors and pharmaceutical use therof” (LEO PHARMA A/S, priority 2011, dated 2016).

Tests used:
Format in all cases: biochemical
JAK2 = molecular target: T1, JAK2 (Homo sapiens, UniProt O60674); assay: JAK kinase assay (HTRF, phosphorylation of synthetic peptide), JAK2; conditions: catalytic domain, ATP at Km (4 μM); read-out: JAK2 kinase inhibitory activity (EC50)
T1 construct: All four purified enzymes contain only the catalytic domain; His (N); purchased Carna Biosciences, Inc; host or cells: baculovirus expression system
T1 sequence (O60674 849-1124 limits assumed): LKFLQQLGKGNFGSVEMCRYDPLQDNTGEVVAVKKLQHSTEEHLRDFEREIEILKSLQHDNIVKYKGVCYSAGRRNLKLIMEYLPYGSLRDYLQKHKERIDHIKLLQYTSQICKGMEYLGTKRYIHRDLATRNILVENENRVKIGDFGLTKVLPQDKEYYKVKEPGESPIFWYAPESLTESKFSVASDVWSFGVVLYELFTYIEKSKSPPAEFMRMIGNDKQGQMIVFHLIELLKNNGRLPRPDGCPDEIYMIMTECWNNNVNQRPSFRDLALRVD
Experimental: (§1) Human baculovirus-expressed JAK1, 2, 3 and TYK2 were purchased from Carna Biosciences, Inc. All four purified enzymes contain only the catalytic domain. JAK1 (aa 850-1154) and TYK2 (aa 871-1187) are expressed with an N-terminally fused GST-tag, and JAK2 and JAK3 with an N-terminally fused His-tag.
(§2) Inhibition of phosphorylation of a synthetic peptide was measured in an HTRF-based assay using the TK substrate-Biotin from the Cisbio HTRFKinEASE TK kit. First, 2 μl of TK solution (TK substrate-biotin in kinase buffer [1× enzymatic buffer from HTRFKinEASE TK kit, 1 mM DTT]) is added to a plate containing 1 μl prediluted compound (final assay concentration DMSO: 0.75%). Then, 5 μl kinase-ATP mix (prepared in kinase buffer) is added to the wells and the plates are incubated at RT for 20-30 min. For all four kinases a concentration of ATP that corresponded to the Km for ATP was used. The final concentrations of buffers, substrate, kinase and ATP were: JAK1: 50 mM Hepes buffer pH 7.0, 0.01% BSA, 10 mM MgCl2, 1 mM DTT, 7 μM ATP, 50 nM SEB, 1 μM TK Substrate-Biotin and 5 ng JAK1; JAK2: 50 mM Hepes buffer pH 7.0, 0.01% BSA, 5 mM MgCl2, 1 mM DTT, 4 μM ATP, 1 μM TK Substrate-Biotin and 0.1 ng JAK2; JAK3: 50 mM Hepes buffer pH 7.0, 0.01% BSA, 5 mM MgCl2, 1 mM DTT, 2 μM ATP, 1 μM TK Substrate-Biotin and 0.3 ng JAK3; TYK2: 50 mM Hepes buffer pH 7.0, 0.01% BSA, 5 mM MgCl2, 1 mM DTT, 13 μM ATP, 50 nM SEB, 1 μM TK Substrate-Biotin and 0.8 ng TYK2. Thereafter, the kinase reaction is stopped by adding 4 μl detection mix (final concentrations: 50 mM Hepes buffer pH 7.0, 0.01% BSA, 0.8 M KF, 20 mM EDTA, 42 nM Streptavidin-XL665 and 1:400 STK Ab Cryptate) and the plates are incubated overnight in the dark. The HTRF signal is read using an Envision plate reader.

JAK3 = molecular target: T2, JAK3 (Homo sapiens, UniProt P52333); assay: JAK kinase assay (HTRF, phosphorylation of synthetic peptide), JAK3; conditions: catalytic domain, ATP at Km (2 μM); read-out: JAK3 kinase inhibitory activity (EC50)
T2 construct: All four purified enzymes contain only the catalytic domain; His (N); purchased Carna Biosciences, Inc; host or cells: baculovirus expression system
T2 sequence (P52333 822-1111 limits assumed): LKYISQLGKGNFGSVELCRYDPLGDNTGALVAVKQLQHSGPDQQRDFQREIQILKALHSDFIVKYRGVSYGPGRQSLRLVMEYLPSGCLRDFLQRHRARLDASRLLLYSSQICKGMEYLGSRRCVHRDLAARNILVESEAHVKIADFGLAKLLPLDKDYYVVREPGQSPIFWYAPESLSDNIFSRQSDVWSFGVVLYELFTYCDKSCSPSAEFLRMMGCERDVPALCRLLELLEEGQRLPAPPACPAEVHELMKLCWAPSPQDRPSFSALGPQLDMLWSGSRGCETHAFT
Experimental: as §1, §2

JAK1 = molecular target: T3, JAK1 (Homo sapiens, UniProt P23458); assay: JAK kinase assay (HTRF, phosphorylation of synthetic peptide), JAK1; conditions: catalytic domain, ATP at Km (7 μM); read-out: JAK1 kinase inhibitory activity (EC50)
T3 construct: JAK1 (aa 850-1154) and TYK2 (aa 871-1187) are expressed with an N-terminally fused GST-tag; GST (N); purchased Carna Biosciences, Inc; host or cells: baculovirus expression system
T3 sequence (P23458 850-1154): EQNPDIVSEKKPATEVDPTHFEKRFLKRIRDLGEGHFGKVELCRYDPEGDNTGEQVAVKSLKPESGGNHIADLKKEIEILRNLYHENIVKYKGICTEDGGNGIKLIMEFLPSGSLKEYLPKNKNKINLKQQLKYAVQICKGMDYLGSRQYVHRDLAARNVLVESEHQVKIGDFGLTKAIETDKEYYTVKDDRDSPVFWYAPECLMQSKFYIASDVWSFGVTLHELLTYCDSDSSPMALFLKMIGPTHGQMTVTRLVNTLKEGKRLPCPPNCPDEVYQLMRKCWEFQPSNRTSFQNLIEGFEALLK
Experimental: as §1, §2

TYK2 = molecular target: T4, TYK2 (Homo sapiens, UniProt P29597); assay: JAK kinase assay (HTRF, phosphorylation of synthetic peptide), TYK2; conditions: catalytic domain, ATP at Km (13 μM); read-out: TYK2 kinase inhibitory activity (EC50)
T4 construct: JAK1 (aa 850-1154) and TYK2 (aa 871-1187) are expressed with an N-terminally fused GST-tag; GST (N); purchased Carna Biosciences, Inc; host or cells: baculovirus expression system
T4 sequence (P29597 871-1187): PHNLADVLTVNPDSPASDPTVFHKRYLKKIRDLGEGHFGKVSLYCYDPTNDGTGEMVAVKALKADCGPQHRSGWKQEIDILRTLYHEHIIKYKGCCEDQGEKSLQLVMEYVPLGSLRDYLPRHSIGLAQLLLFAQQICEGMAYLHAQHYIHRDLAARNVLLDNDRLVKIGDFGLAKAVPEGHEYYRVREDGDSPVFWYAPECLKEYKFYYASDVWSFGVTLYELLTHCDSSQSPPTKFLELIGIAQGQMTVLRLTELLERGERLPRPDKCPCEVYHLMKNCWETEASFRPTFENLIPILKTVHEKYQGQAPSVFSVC
Experimental: as §1, §2

| Compound | EC50 (JAK2) | EC50 (JAK3) | EC50 (JAK1) | EC50 (TYK2) |
| --- | --- | --- | --- | --- |
| CN(CC1CCN(C(=O)CCC#N)CC1)S(=O)(=O)N1CCN(c2ncnc3[nH]ccc23)CC12CC2 [Example 152, N-[[1-(3-cyanopropanoyl)-4-piperidyl]methyl]-N-methyl-5-(7H-pyrrolo[2,3-d]pyrimidin-4-yl)-5,8-diazaspiro[2.5]octane-8-sulfonamide] | < 100 nM | 100 to 500 nM | < 100 nM | > 500 nM |
| O=S(=O)(N(CCc1ccccc1)CC1CCC1)N1CCN(c2ncnc3[nH]ccc23)CC12CC2 [Example 3, 7-(7H-Pyrrolo[2,3-d]pyrimidin-4-yl)-4,7-diaza-spiro[2.5]octane-4-sulfonic acid cyclobutyl methyl-phenethyl-amide] | < 100 nM | 100 to 500 nM | 100 to 500 nM | > 500 nM |
| CN(CC1CCC1)S(=O)(=O)N1CCN(c2ncnc3[nH]ccc23)CC12CC2 [Example 60, N-(cyclobutylmethyl)-N-methyl-5-(7H-pyrrolo[2,3-d]pyrimidin-4-yl)-5,8-diazaspiro[2.5]octane-8-sulfonamide] | < 100 nM | < 100 nM | < 100 nM | < 100 nM |
| O=S(=O)(NC1COC1)N1CCN(c2ncnc3[nH]ccc23)CC12CC2 [Int 41] | < 100 nM | < 100 nM | < 100 nM | 100 to 500 nM |
| CN(C[C@H]1CCCN1C(=O)C(O)CO)S(=O)(=O)N1CCN(c2ncnc3[nH]ccc23)CC12CC2 (stereo partly drawn) [Example 186, N-[[(2R)-1-(2,3-dihydroxypropanoyl)pyrrolidin-2-yl]methyl]-N-methyl-5-(7H-pyrrolo[2,3-d]pyrimidin-4-yl)-5,8-diazaspiro[2.5]octane-8-sulfonamide] | < 100 nM | < 100 nM | < 100 nM | < 100 nM |
| O=S(=O)(N(CCO)C1CCC1)N1CCN(c2ncnc3[nH]ccc23)CC12CC2 [Example 101, N-cyclobutyl-N-(2-hydroxyethyl)-5-(7H-pyrrolo[2,3-d]pyrimidin-4-yl)-5,8-diazaspiro[2.5]octane-8-sulfonamide] | < 100 nM | < 100 nM | < 100 nM | < 100 nM |
| O=C(CN(CCc1ccccc1)S(=O)(=O)N1CCN(c2ncnc3[nH]ccc23)CC12CC2)NCc1ccccc1 [Example 49, N-Benzyl-2-{phenethyl-[7-(7H-pyrrolo[2,3-d]pyrimidin-4-yl)-4,7-diaza-spiro[2.5]octane-4-sulfonyl]-amino}-acetamide] | < 100 nM | 100 to 500 nM | < 100 nM | > 500 nM |

Continued, values first:

| EC50 (JAK2) | EC50 (JAK3) | EC50 (JAK1) | EC50 (TYK2) | Compound |
| --- | --- | --- | --- | --- |
| < 100 nM | < 100 nM | < 100 nM | 100 to 500 nM | N#CCCCN(C1CCC1)S(=O)(=O)N1CCN(c2ncnc3[nH]ccc23)CC12CC2 [Example 102, N-(3-cyanopropyl)-N-cyclobutyl-5-(7H-pyrrolo[2,3-d]pyrimidin-4-yl)-5,8-diazaspiro[2.5]octane-8-sulfonamide] |
| < 100 nM | 100 to 500 nM | < 100 nM | > 500 nM | CCCC(C)NS(=O)(=O)N1CCN(c2ncnc3[nH]ccc23)CC12CC2 (centres unmarked) [Example 143, N-(1-methylbutyl)-5-(7H-pyrrolo[2,3-d]pyrimidin-4-yl)-5,8-diazaspiro[2.5]octane-8-sulfonamide] |
| < 100 nM | < 100 nM | < 100 nM | < 100 nM | CN(C[C@@H]1CC(F)(F)CN1S(=O)(=O)CCCC#N)S(=O)(=O)N1CCN(c2ncnc3[nH]ccc23)CC12CC2 [Example 163, N-[[(2S)-1-(3-cyanopropylsulfonyl)-4,4-difluoro-pyrrolidin-2-yl]methyl]-N-methyl-5-(7H-pyrrolo[2,3-d]pyrimidin-4-yl)-5,8-diazaspiro[2.5]octane-8-sulfonamide] |
| < 100 nM | 100 to 500 nM | < 100 nM | > 500 nM | CN(CC1CCCN(S(=O)(=O)CCCC#N)C1)S(=O)(=O)N1CCN(c2ncnc3[nH]ccc23)CC12CC2 (centres unmarked) [Example 161, N-[[1-(3-cyanopropylsulfonyl)-3-piperidyl]methyl]-N-methyl-5-(7H-pyrrolo[2,3-d]pyrimidin-4-yl)-5,8-diazaspiro[2.5]octane-8-sulfonamide] |
